Source: ChEMBL document CHEMBL1177823, “7',8'-Dihydroobolactone, a typanocidal alpha-pyrone from the rainforest tree Cryptocarya obovata” (Bioorg Med Chem Lett, 2010)

Assays:
[1] = system: Trypanosoma brucei brucei; assay: Antitrypanosomal activity against Trypanosoma brucei brucei; assay type: functional, organism-based
HEK293 = assay: Cytotoxicity against […] cells after 72 hrs by Alamar blue assay; assay type: cell-based; settings: Homo sapiens, HEK293, 72 h
[2] = Cytotoxicity against […] cells at 70 uM after 72 hrs by Alamar blue assay; assay type: cell-based; settings: human, HEK293 cells; read-out: INH
A549 = assay: Cytotoxicity against human A549 cells after 72 hrs by Alamar blue assay; assay type: functional, cell-based; settings: A549, 72 h
HeLa = assay: Cytotoxicity against human HeLa cells after 72 hrs by Alamar blue assay; assay type: functional, cell-based
[3] = Selectivity index, ratio of IC50 for HEK293 cells to IC50 for Trypanosoma brucei brucei; assay type: toxicity, cell-based; settings: human, HEK293 cells versus Trypanosoma brucei brucei; read-out: Selectivity Index
[4] = system: Trypanosoma brucei brucei; assay: Antitrypanosomal activity against Trypanosoma brucei brucei at 167 uM; assay type: functional
MCF7 = assay: Cytotoxicity against human MCF7 cells after 72 hrs by Alamar blue assay; assay type: functional, cell-based; settings: MCF7, 72 h

COc1ccc(C[C@H](N)C(=O)N[C@H]2[C@@H](O)[C@H](n3cnc4c(N(C)C)ncnc43)O[C@@H]2CO)cc1 [PUROMYCIN]
IC50 [1]: 0.037 µM
IC50 (HEK293): 0.42 µM

N=C(N)c1ccc(OCCCCCOc2ccc(C(=N)N)cc2)cc1 [PENTAMIDINE]
IC50 [1]: 0.007 µM
cytotoxicity at 72 h, 70 µM [2]: 58.3%

N=C(N)c1ccc(/N=N/Nc2ccc(C(=N)N)cc2)cc1 [DIMINAZENE]
IC50 [1]: 0.025 µM
IC50 (HEK293): > 80 µM

O=C1C=C(CCc2ccccc2)O[C@H](C[C@H]2CC=CC(=O)O2)C1
IC50 [1]: 2.8 µM
IC50 (HEK293): 20.4 µM
IC50 (A549): 78 µM
IC50 (HeLa): 43 µM
selectivity ratio [3]: 7.4

O=c1ccc2cc3ccoc3cc2o1 [PSORALEN]
inhibition at 167 µM [4]: 50.3%
IC50 (HEK293): > 167 µM

O=C1C=C(/C=C/c2ccccc2)O[C@H](C[C@H]2CC=CC(=O)O2)C1 [OBOLACTONE]
IC50 [1]: 5.3 µM
IC50 (HEK293): 13.2 µM
IC50 (A549): 43 µM
IC50 (MCF7): 32 µM
IC50 (HeLa): 24 µM
selectivity ratio [3]: 2.5
